# According to PubChem BioAssay AID1963958 (Molecular Pharmacology Branch, DTP, NCI, 2024):
# System: MDA-MB-231 multicell spheroids, viability
# Experiment: Anticancer human tumor MDA-MB-231 cell line growth inhibition [PI3K];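 note: spheroids exposed to agents for seven days before reading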;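 for viability, T/C: percent of vehicle control luminescence with DMSO treated spheroids as 100%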
# Conditions: for IC50: curve of first compound; for viability, T/C: stronger effect = lower value
# In short: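 Three cell types, namely tumor cells, endothelial cells and mesenchymal stem cells, formed each spheroid. Combinations with four PI3K inhibitors were screened at clinically achievable concentrations decreasing by half-log, and spheroid viability was recorded.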
# [1] = second compound 0.0316 µM, first compound 0.0316 µM
# [2] = second compound 0.0316 µM, first compound 0.1 µM
# [3] = second compound 0.0316 µM, first compound 0.316 µM
# [4] = second compound 0.0316 µM, first compound 1 µM
# [5] = second compound 0.0316 µM, first compound 3.16 µM
# [6] = second compound 0.0316 µM, first compound 10 µM
# [7] = second compound 0.1 µM, first compound 0.0316 µM
# [8] = second compound 0.1 µM, first compound 0.1 µM
# [9] = second compound 0.1 µM, first compound 0.316 µM
# [10] = second compound 0.1 µM, first compound 1 µM
# [11] = second compound 0.1 µM, first compound 3.16 µM
# [12] = second compound 0.1 µM, first compound 10 µM
# [13] = second compound 0.316 µM, first compound 0.0316 µM
# [14] = second compound 0.316 µM, first compound 0.1 µM
# [15] = second compound 0.316 µM, first compound 0.316 µM
# [16] = second compound 0.316 µM, first compound 1 µM
# [17] = second compound 0.316 µM, first compound 3.16 µM
# [18] = second compound 0.316 µM, first compound 10 µM
# [19] = second compound 1 µM, first compound 0.0316 µM
# [20] = second compound 1 µM, first compound 0.1 µM
# [21] = second compound 1 µM, first compound 0.316 µM
# [22] = second compound 1 µM, first compound 1 µM
# [23] = second compound 1 µM, first compound 3.16 µM
# [24] = second compound 1 µM, first compound 10 µM
# [25] = second compound 3.16 µM, first compound 0.0316 µM
# [26] = second compound 3.16 µM, first compound 0.1 µM
# [27] = second compound 3.16 µM, first compound 0.316 µM
# [28] = second compound 3.16 µM, first compound 1 µM
# [29] = second compound 3.16 µM, first compound 3.16 µM
# [30] = second compound 3.16 µM, first compound 10 µM
# [31] = second compound 10 µM, first compound 0.0316 µM
# [32] = second compound 10 µM, first compound 0.1 µM
# [33] = second compound 10 µM, first compound 0.316 µM
# [34] = second compound 10 µM, first compound 1 µM
# [35] = second compound 10 µM, first compound 3.16 µM
# [36] = second compound 10 µM, first compound 10 µM
smiles,measurement,setting,value
C#Cc1c(F)ccc2cc(O)cc(-c3ncc4c(N5CC6CCC(C5)N6)nc(OCC56CCCN5CC(F)C6)nc4c3F)c12 (centres undefined) + CC(Nc1ncnc2nc[nH]c12)c1cc2cccc(Cl)c2c(=O)n1-c1ccccc1,IC50,second compound 0.0316 µM,> 10 µM
same,IC50,second compound 0.1 µM,> 10 µM
same,IC50,second compound 0.316 µM,> 10 µM
same,IC50,second compound 1 µM,6.63 µM
same,IC50,second compound 3.16 µM,1.94 µM
same,IC50,second compound 10 µM,0.0387 µM
same,"viability, T/C",[1],109%
same,"viability, T/C",[2],96.2%
same,"viability, T/C",[3],103%
same,"viability, T/C",[4],94.6%
same,"viability, T/C",[5],89.9%
same,"viability, T/C",[6],61.1%
same,"viability, T/C",[7],101%
same,"viability, T/C",[8],99.1%
same,"viability, T/C",[9],90.6%
same,"viability, T/C",[10],88.3%
same,"viability, T/C",[11],79.5%
same,"viability, T/C",[12],57.7%
same,"viability, T/C",[13],99.2%
same,"viability, T/C",[14],89%
same,"viability, T/C",[15],87.6%
same,"viability, T/C",[16],86.4%
same,"viability, T/C",[17],77.5%
same,"viability, T/C",[18],53.2%
same,"viability, T/C",[19],75.5%
same,"viability, T/C",[20],83.2%
same,"viability, T/C",[21],90.2%
same,"viability, T/C",[22],72.8%
same,"viability, T/C",[23],62.4%
same,"viability, T/C",[24],43.5%
same,"viability, T/C",[25],65.5%
same,"viability, T/C",[26],62.8%
same,"viability, T/C",[27],56.6%
same,"viability, T/C",[28],56.5%
same,"viability, T/C",[29],46.7%
same,"viability, T/C",[30],33.1%
same,"viability, T/C",[31],51.4%
same,"viability, T/C",[32],46.8%
same,"viability, T/C",[33],44.4%
same,"viability, T/C",[34],39.8%
same,"viability, T/C",[35],35.4%
same,"viability, T/C",[36],26.4%
CC1(C)CCC(CN2CCN(c3ccc(C(=O)NS(=O)(=O)c4ccc(NCC5CCOCC5)c([N+](=O)[O-])c4)c(Oc4cnc5[nH]ccc5c4)c3)CC2)=C(c2ccc(Cl)cc2)C1 + CC(Nc1ncnc2nc[nH]c12)c1cc2cccc(Cl)c2c(=O)n1-c1ccccc1,IC50,second compound 0.0316 µM,7.72 µM
same,IC50,second compound 0.1 µM,6.9 µM
same,IC50,second compound 0.316 µM,7.92 µM
same,IC50,second compound 1 µM,6.18 µM
same,IC50,second compound 3.16 µM,5.26 µM
same,IC50,second compound 10 µM,3.33 µM
same,"viability, T/C",[1],104%
same,"viability, T/C",[2],96.9%
same,"viability, T/C",[3],110%
same,"viability, T/C",[4],102%
same,"viability, T/C",[5],112%
same,"viability, T/C",[6],33.9%
same,"viability, T/C",[7],92.5%
same,"viability, T/C",[8],92.1%
same,"viability, T/C",[9],100%
same,"viability, T/C",[10],107%
same,"viability, T/C",[11],103%
same,"viability, T/C",[12],26.6%
same,"viability, T/C",[13],90.5%
same,"viability, T/C",[14],99%
same,"viability, T/C",[15],105%
same,"viability, T/C",[16],98.2%
same,"viability, T/C",[17],108%
same,"viability, T/C",[18],37.1%
same,"viability, T/C",[19],85.9%
same,"viability, T/C",[20],86.6%
same,"viability, T/C",[21],75.6%
same,"viability, T/C",[22],92.4%
same,"viability, T/C",[23],91.8%
same,"viability, T/C",[24],23.7%
same,"viability, T/C",[25],70%
same,"viability, T/C",[26],64.7%
same,"viability, T/C",[27],65.3%
same,"viability, T/C",[28],66.6%
same,"viability, T/C",[29],72.2%
same,"viability, T/C",[30],27.7%
same,"viability, T/C",[31],50.6%
same,"viability, T/C",[32],50.4%
same,"viability, T/C",[33],49.6%
same,"viability, T/C",[34],50.5%
same,"viability, T/C",[35],53.7%
same,"viability, T/C",[36],28.4%
